Results reported in patent US20030073618A1, “Compounds comprising disulfide-containing peptides and nitrogenous bases, and medical uses thereof” (priority 2001, published 2003).
Read-outs that look alike come from different tables or passages of the source.

What was measured:
[1] = tested on: HIV; assay type: in vivo; parameters: Hemoglobin / Platelets / Leukocytes / ESR: unit not given beside the values; (CD25+) / HLA-DR / (CD16) / IgA / IgM / IgG / CIC / (CD20+) / CD4+ / CD8+: unit not given here; settings: for Lymphocyte count / Weight gained / Karnovsky score: Ex. 13; for Karnovsky score: on admission 75; for Erythrocytes / Hemoglobin / Leukocytes / Monocytes / Platelets / Segmented neutrophils / Stab neutrophils / ESR: general blood test; for (CD16) / (CD20+) / (CD25+) / CD4+ / CD4/CD8 / CD8+ / CIC / HLA-DR / IgA / IgG / IgM: immune blood test
[2] = tested on: mycobacterium tuberculosis; settings: for CD4+ / CD4/CD8 / CD8+ / IL-1 / IL-4 / IL-6 / IL-8 / IL-12 / Lymphocytes: blood immune test; for ESR / Erythrocytes / Hemoglobin / Leukocytes / Monocytes / Platelets / Segmented neutrophils / Stab neutrophils: general blood test
[3] = Ex. 16, on treatment completion

Cc1cn([C@H]2C[C@H](O)[C@@H](COP(=O)(O)N[C@@H](CCC(=O)N[C@@H](CSSC[C@H](NC(=O)CC[C@H](N)C(=O)O)C(=O)NCC(=O)[O][Zn])C(=O)NCC(=O)[O][Zn])C(=O)O)O2)c(=O)[nH]c1=O [Zn2-GSSG-TMP]
Viral load ([1]; 1-month treatment): 66000 copies of HIV RNA/ml | Lymphocyte count ([1]; after 1-month treatment): 1276 | Weight gained ([1]; after 1-month treatment): 1.8 kg | Karnovsky score ([1]; after 1-month treatment): 80 | Lymphocyte count ([1]; after completion of treatment): 2295 | Weight gained ([1]; after completion of treatment): 2.5 kg | Karnovsky score ([1]; after completion of treatment): 90 | Viral load ([1]; Initial value): 80000 copies of HIV RNA/ml | Viral load ([1]; Treatment completion): 15000 copies of HIV RNA/ml | Erythrocytes ([1]; 01.04.96): 3.9 | Hemoglobin ([1]; 01.04.96): 126 | Leukocytes ([1]; 01.04.96): 3.5 | Monocytes ([1]; 01.04.96): 2 | Platelets ([1]; 01.04.96): 180 | Segmented neutrophils ([1]; 01.04.96): 41 | Stab neutrophils ([1]; 01.04.96): 3 | ESR ([1]; 03.04.96): 21 | Erythrocytes ([1]; 03.04.96): 3.9 | Hemoglobin ([1]; 03.04.96): 125 | Leukocytes ([1]; 03.04.96): 2.6 | Monocytes ([1]; 03.04.96): 7 | Platelets ([1]; 03.04.96): 170 | Segmented neutrophils ([1]; 03.04.96): 47 | Stab neutrophils ([1]; 03.04.96): 8 | ESR ([1]; 13.03.96): 18 | Erythrocytes ([1]; 13.03.96): 5 | Hemoglobin ([1]; 13.03.96): 160 | Leukocytes ([1]; 13.03.96): 2.4 | Monocytes ([1]; 13.03.96): 2 | Platelets ([1]; 13.03.96): 200 | Segmented neutrophils ([1]; 13.03.96): 48 | Stab neutrophils ([1]; 13.03.96): 5 | ESR ([1]; 15.05.96): 12 | Erythrocytes ([1]; 15.05.96): 4.2 | Hemoglobin ([1]; 15.05.96): 136 | Leukocytes ([1]; 15.05.96): 4.5 | Monocytes ([1]; 15.05.96): 3 | Platelets ([1]; 15.05.96): 190 | Segmented neutrophils ([1]; 15.05.96): 49 | Stab neutrophils ([1]; 15.05.96): 7 | ESR ([1]; 16.04.96): 20 | Erythrocytes ([1]; 16.04.96): 4 | Hemoglobin ([1]; 16.04.96): 129 | Leukocytes ([1]; 16.04.96): 2.9 | Monocytes ([1]; 16.04.96): 2 | Platelets ([1]; 16.04.96): 180 | Segmented neutrophils ([1]; 16.04.96): 45 | Stab neutrophils ([1]; 16.04.96): 8 | ESR ([1]; 28.03.96): 16 | Erythrocytes ([1]; 28.03.96): 4.3 | Hemoglobin ([1]; 28.03.96): 136 | Leukocytes ([1]; 28.03.96): 2.9 | Monocytes ([1]; 28.03.96): 2 | Segmented neutrophils ([1]; 28.03.96): 35 | Stab neutrophils ([1]; 28.03.96): 4 | (CD16) ([1]; 03.04.96): 198 | (CD20+) ([1]; 03.04.96): 217 | (CD25+) ([1]; 03.04.96): 207 | CD4+ ([1]; 03.04.96): 247 | CD4/CD8 ([1]; 03.04.96): 0.89 | CD8+ ([1]; 03.04.96): 277 | CIC ([1]; 03.04.96): 0.175 | HLA-DR ([1]; 03.04.96): 237 | IgA ([1]; 03.04.96): 2.1 | IgG ([1]; 03.04.96): 20 | IgM ([1]; 03.04.96): 4.6 | (CD16) ([1]; 13.03.96): 216 | (CD20+) ([1]; 13.03.96): 256 | (CD25+) ([1]; 13.03.96): 226 | CD4+ ([1]; 13.03.96): 276 | CD4/CD8 ([1]; 13.03.96): 0.78 | CD8+ ([1]; 13.03.96): 354 | CIC ([1]; 13.03.96): 0.09 | HLA-DR ([1]; 13.03.96): 354 | IgA ([1]; 13.03.96): 1.8 | IgG ([1]; 13.03.96): 18.8 | IgM ([1]; 13.03.96): 2.6 | (CD16) ([1]; 15.05.96): 505 | (CD20+) ([1]; 15.05.96): 390 | (CD25+) ([1]; 15.05.96): 482 | CD4+ ([1]; 15.05.96): 574 | CD4/CD8 ([1]; 15.05.96): 0.96 | CD8+ ([1]; 15.05.96): 597 | CIC ([1]; 15.05.96): 0.075 | HLA-DR ([1]; 15.05.96): 665 | IgA ([1]; 15.05.96): 1.5 | IgG ([1]; 15.05.96): 28 | IgM ([1]; 15.05.96): 3.1 | (CD16) ([1]; 17.04.96): 332 | (CD20+) ([1]; 17.04.96): 306 | (CD25+) ([1]; 17.04.96): 332 | CD4+ ([1]; 17.04.96): 319 | CD4/CD8 ([1]; 17.04.96): 0.86 | CD8+ ([1]; 17.04.96): 370 | CIC ([1]; 17.04.96): 0.11 | HLA-DR ([1]; 17.04.96): 434 | IgA ([1]; 17.04.96): 1.6 | IgG ([1]; 17.04.96): 24 | IgM ([1]; 17.04.96): 5.2

N[C@@H](CCC(=O)N[C@@H](CSSC[C@H](NC(=O)CC[C@H](NP(=O)(O)OC[C@H]1O[C@@H](n2cnc3c(=O)[nH]cnc32)[C@H](O)[C@@H]1O)C(=O)O)C(=O)NCC(=O)[O-])C(=O)NCC(=O)[O-])C(=O)O.[Li+].[Li+] [Example 16]
CD4+ ([2]; 19.12.98): 860 | CD4/CD8 ([2]; 19.12.98): 1.53 | CD8+ ([2]; 19.12.98): 563 | IL-1 ([2]; 19.12.98): 46 | IL-4 ([2]; 19.12.98): 37 | IL-6 ([2]; 19.12.98): 44 | IL-8 ([2]; 19.12.98): 50 | IL-12 ([2]; 19.12.98): 39 | Lymphocytes ([2]; 19.12.98): 1400 | CD4+ ([2]; 20.10.98): 199 | CD4/CD8 ([2]; 20.10.98): 0.56 | CD8+ ([2]; 20.10.98): 357 | IL-1 ([2]; 20.10.98): 22 | IL-4 ([2]; 20.10.98): 32 | IL-6 ([2]; 20.10.98): 16 | IL-8 ([2]; 20.10.98): 23 | IL-12 ([2]; 20.10.98): 14 | Lymphocytes ([2]; 20.10.98): 832 | CD4+ ([2]; 21.01.99): 892 | CD4/CD8 ([2]; 21.01.99): 1.50 | CD8+ ([2]; 21.01.99): 594 | IL-1 ([2]; 21.01.99): 39 | IL-4 ([2]; 21.01.99): 34 | IL-6 ([2]; 21.01.99): 39 | IL-8 ([2]; 21.01.99): 48 | IL-12 ([2]; 21.01.99): 47 | Lymphocytes ([2]; 21.01.99): 1680 | CD4+ ([2]; 21.11.98): 527 | CD4/CD8 ([2]; 21.11.98): 1.25 | CD8+ ([2]; 21.11.98): 422 | IL-1 ([2]; 21.11.98): 29 | IL-4 ([2]; 21.11.98): 30 | IL-6 ([2]; 21.11.98): 29 | IL-8 ([2]; 21.11.98): 45 | IL-12 ([2]; 21.11.98): 28 | Lymphocytes ([2]; 21.11.98): 1350 | ESR ([2]; 19.12.98): 13 | Erythrocytes ([2]; 19.12.98): 4.3 | Hemoglobin ([2]; 19.12.98): 132 | Leukocytes ([2]; 19.12.98): 5.2 | Monocytes ([2]; 19.12.98): 2 | Platelets ([2]; 19.12.98): 230 | Segmented neutrophils ([2]; 19.12.98): 51 | Stab neutrophils ([2]; 19.12.98): 1 | ESR ([2]; 20.10.98): 50 | Erythrocytes ([2]; 20.10.98): 3.7 | Hemoglobin ([2]; 20.10.98): 108 | Leukocytes ([2]; 20.10.98): 9.9 | Monocytes ([2]; 20.10.98): 12 | Platelets ([2]; 20.10.98): 260 | Segmented neutrophils ([2]; 20.10.98): 57 | Stab neutrophils ([2]; 20.10.98): 12 | ESR ([2]; 21.01.99): 11 | Erythrocytes ([2]; 21.01.99): 4.2 | Hemoglobin ([2]; 21.01.99): 128 | Leukocytes ([2]; 21.01.99): 6.8 | Monocytes ([2]; 21.01.99): 5 | Platelets ([2]; 21.01.99): 210 | Segmented neutrophils ([2]; 21.01.99): 50 | Stab neutrophils ([2]; 21.01.99): 3 | ESR ([2]; 21.11.98): 27 | Erythrocytes ([2]; 21.11.98): 4.2 | Hemoglobin ([2]; 21.11.98): 128 | Leukocytes ([2]; 21.11.98): 5.2 | Monocytes ([2]; 21.11.98): 4 | Platelets ([2]; 21.11.98): 210 | Segmented neutrophils ([2]; 21.11.98): 53 | Stab neutrophils ([2]; 21.11.98): 6

N[C@@H](CCC(=O)N[C@@H](CSSC[C@H](NC(=O)CC[C@H](NP(=O)(O)OC[C@H]1O[C@@H](n2cnc3c(=O)[nH]cnc32)[C@H](O)[C@@H]1O)C(=O)O)C(=O)NCC(=O)[O-])C(=O)NCC(=O)[O-])C(=O)O.[Li+].[Li+] [Li2-GSSG-IMP]
Karnovsky score ([2]; Ex. 16, in 2 months): 75 | Temperature ([2]; Ex. 16, in 2 months, on admission 37.5): 36.7 °C | Weight gained ([2]; Ex. 16, in a month): 4 kg | Karnovsky score ([2]; Ex. 16, in a month, on admission 50, with antibacterial therapy): 70 | Bacterial discharge, in the vision field by microscopy ([2]; Ex. 16, in a month, on admission up to 100): 2-4 | Karnovsky score [2, 3]: 90 | Temperature [2, 3]: 36.6 °C | X-ray, destruction cavity ([2]; Ex. 16, on treatment completion, on admission 4×3 cm): destruction cavity in the left lung upper lobe healed
